Measured values as given in patent US20240174680A1, “CDK2 INHIBITORS AND METHODS OF USING THE SAME” (Cedilla Therapeutics, Inc., priority 2021, published 2024).

Target: CDK2/Cyclin E1 (Homo sapiens, UniProt P24941)
Experiment: CDK2/Cyclin E1 Caliper LabChip EZ Reader mobility shift assay
Assay type: biochemical
Design: purchased Eurofins 14-475
Conditions: read-out: Caliper Assay (CDK2/CCNE1): IC50
In short: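 Mobility-shift kinase assay: compound titrations preincubated 30 min with enzyme and ATP, reaction started with 5-FAM-QSPKKG-CONH2 peptide. Final 2.5 nM CDK2/Cyclin E1, 100 μM ATP, 1.5 μM peptide, HEPES pH 7.5; stopped with EDTA after 100 min. IC50 from four-parameter fit of normalized conversion ratio.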

| IC50 [nM] | Structure (SMILES) |
| --- | --- |
| 1000 to 10000 | CNC(=O)[C@@H](NC(=O)[C@@H]1CN(C(=O)c2cnn(Cc3ccccc3)c2)CC12CN(C(=O)C(C)C1CC1)C2)[C@@H](C)OCc1ccccc1 (stereo partly drawn) [I-277] |
| ≤ 10 | CNC(=O)[C@@H](NC(=O)[C@@H]1CN(C(=O)c2cnn(Cc3ccccc3)c2)CC12CN(C(=O)[C@H]1CC1(C)C)C2)[C@@H](C)OCC1CCC(C)(C)CC1 [I-372] |
| 100 to 1000 | CNC(=O)[C@@H](NC(=O)[C@@H]1CN(C(=O)c2cnn(Cc3ccccc3)c2)CC12CN(C(=O)C1(C(F)(F)F)CC1)C2)[C@@H](C)OCc1ccccc1 [I-108A] |
| ≤ 10 | COC[C@H]1CCCN(C(=O)[C@@H](NC(=O)C2CN(C(=O)c3cncs3)CC23CN(C(=O)[C@H]2CC2(C)C)C3)[C@@H](C)OCC2CCCCC2)C1 (stereo partly drawn) [I-196 mixture] |
| > 10000 | CNC(=O)[C@@H](NC(=O)[C@H]1CN(C(=O)c2cnn(Cc3ccccc3)c2)CC12CN(C(=O)C1(CCF)CC1)C2)[C@@H](C)OCc1ccccc1 [I-117B] |
| 100 to 1000 | C[C@@H](OCC1(C(F)(F)F)CC1)[C@H](NC(=O)[C@@H]1CN(C(=O)c2cncs2)CC12CN(C(=O)[C@H]1CC1(C)C)C2)C(=O)N1CCC(F)(F)CC1 [I-287] |
| 100 to 1000 | CNC(=O)[C@@H](NC(=O)[C@@H]1CN(C(=O)c2cnn(Cc3ccccc3)c2)CC12CN(C(=O)[C@H]1CC1(C)C)C2)[C@@H](C)OCC1(C(F)(F)F)CC1 [I-205A] |
| ≤ 10 | COC[C@H]1CCCN(C(=O)[C@@H](NC(=O)[C@@H]2CN(C(=O)c3cncs3)CC23CN(C(=O)[C@H]2CC2(C)C)C3)[C@@H](C)OCc2cccc(F)c2)C1 [I-322] |
| 1000 to 10000 | CC(C)(O)C(NC(=O)[C@@H]1CN(C(=O)c2cncs2)CC12CN(C(=O)C(C)(C)C1CC1)C2)c1cccc(C2CCOCC2)n1 (stereo partly drawn) [I-339] |
| 1000 to 10000 | CC1(C)C[C@@H]1C(=O)N1CC2(CN(C(=O)c3cncs3)C[C@H]2C(=O)NC(c2cccc(C3CCOCC3)n2)C2CCCO2)C1 (stereo partly drawn) [I-497] |
| > 10000 | CNC(=O)[C@@H](NC(=O)[C@@H]1CN(C(=O)c2ccccn2)CC12CN(C(=O)[C@H]1CC1(C)C)C2)[C@@H](C)OCc1ccccc1 [I-45A] |
| ≤ 10 | CNC(=O)[C@@H](NC(=O)[C@@H]1CN(C(=O)c2cnn(Cc3ccccc3)c2)CC12CN(C(=O)[C@H]1CC1(C)C)C2)[C@@H](C)OCC1CCCCC1 [I-123A, (S)-6-(1-benzyl-1H-pyrazole-4-carbonyl)-N-((2S,3R)-3-(cyclohexylmethoxy)-1-(methylamino)-1-oxobutan-2-yl)-2-((S)-2,2-dimethylcyclopropane-1-carbonyl)-2,6-diazaspiro[3.4]octane-8-carboxamide] |
| 10 to 100 | C[C@@H](OCc1ccccc1)[C@H](NC(=O)C1CN(C(=O)c2cnn(Cc3ccccc3)c2)CC12CN(C(=O)[C@H]1CC1(C)C)C2)C(=O)N1CCNCC1 (stereo partly drawn) [I-32] |
| 1000 to 10000 | CNC(=O)[C@@H](NC(=O)[C@H]1CN(C(=O)c2cnc(COC)s2)CC12CN(C(=O)[C@H]1CC1(C)C)C2)[C@@H](C)OCC1CCCCC1 [I-145B] |
| 1000 to 10000 | CC1(C)C[C@@H]1C(=O)N1CC2(CN(C(=O)c3cnn(Cc4ccccc4)c3)C[C@H]2C(=O)N2CCC[C@H](OCC3CCCCC3)C2)C1 [I-236] |
| 1000 to 10000 | CC1(C)C[C@@H]1C(=O)N1CC2(CN(C(=O)c3cnn(Cc4ccccc4)c3)C[C@H]2C(=O)N[C@@H]2CCCN(C(=O)C3CCCCC3)C2)C1 [I-215] |
| ≤ 10 | COC1CCN(C(=O)[C@@H](NC(=O)[C@@H]2CN(C(=O)c3cncs3)CC23CN(C(=O)[C@H]2CC2(C)C)C3)[C@@H](C)OCC2CCC(F)(F)CC2)CC1 [I-385] |
| > 10000 | CNC(=O)[C@@H](NC(=O)[C@H]1CN(C(=O)c2ccncc2)CC12CN(C(=O)[C@H]1CC1(C)C)C2)[C@@H](C)OCc1ccccc1 [I-46B] |
| 100 to 1000 | C[C@@H](OCC1CCCCC1)[C@H](NC(=O)[C@@H]1CN(C(=O)c2cnn(C(F)(F)F)c2)CC12CN(C(=O)[C@H]1CC1(C)C)C2)C(=O)N1CCCCC1 [I-115] |
| > 10000 | CNC(=O)[C@@H](NC(=O)[C@@H]1CN(C(=O)c2scnc2C(F)(F)F)CC12CN(C(=O)[C@H]1CC1(C)C)C2)[C@@H](C)OCC1CCCCC1 [I-163A] |
| > 10000 | CNC(=O)[C@@H](NC(=O)[C@H]1CN(C(=O)c2cn[nH]c2)CC12CN(C(=O)CC1CC1)C2)[C@@H](C)OCc1ccccc1 [I-41B] |
| 1000 to 10000 | C[C@H](NC(=O)[C@@H]1CN(C(=O)c2cnn(Cc3ccccc3)c2)CC12CN(C(=O)[C@H]1CC1(C)C)C2)c1cccc(F)c1 [I-127A] |
| > 10000 | CC1(C)C[C@@H]1C(=O)N1CC2(CN(C(=O)c3cnn(Cc4ccccc4)c3)C[C@@H]2C(=O)NCc2nnc[nH]2)C1 [I-191B] |
| 1000 to 10000 | CC1(C)C[C@@H]1C(=O)N1CC2(CN(C(=O)c3cnn(Cc4ccccc4)c3)CC2C(=O)Nc2ncc(-c3ccccc3)o2)C1 (stereo partly drawn) [I-93] |
| ≤ 10 | C[C@@H](OCC12CCC(CC1)OC2)[C@H](NC(=O)[C@@H]1CN(C(=O)c2cncs2)CC12CN(C(=O)[C@H]1CC1(C)C)C2)C(=O)N1CCCC2(COC2)C1 [I-453] |
| ≤ 10 | COC[C@H]1CCCN(C(=O)[C@@H](NC(=O)[C@@H]2CN(C(=O)c3cncs3)CC23CN(C(=O)[C@H]2CC2(C)C)C3)[C@@H](C)OC[C@H]2CC[C@H](OC(F)(F)F)CC2)C1 [I-435] |

| IC50 [nM] | Structure (SMILES) |
| --- | --- |
| ≤ 10 | Cc1nc(C)c(C(=O)N2C[C@@H](C(=O)N[C@H](C(=O)N3CCC4(CC3)COC4)[C@@H](C)OCC34CCC(CC3)OC4)C3(C2)CN(C(=O)[C@H]2CC2(C)C)C3)s1 [I-343] |
| 1000 to 10000 | C[C@@H](OCC1CCC(F)(F)CC1)[C@H](NC(=O)[C@H]1CN(C(=O)c2cn[nH]c2)CC12CN(C(=O)C1(C(F)(F)F)CC1)C2)C(=O)N1CCC(F)(F)CC1 [I-188B] |
| 10 to 100 | CNC(=O)[C@@H](NC(=O)[C@@H]1CN(C(=O)c2scnc2Cl)CC12CN(C(=O)[C@H]1CC1(C)C)C2)[C@@H](C)OCC1CCCCC1 [I-157A] |
| 10 to 100 | C[C@@H](OCC1CCCCC1)[C@H](NC(=O)[C@@H]1CN(C(=O)c2cnn(Cc3ccccc3)c2)CC12CN(C(=O)[C@H]1CC1(C)C)C2)C(=O)N1CCC[C@H]1CN [I-220] |
| 1000 to 10000 | CC1(C)C[C@@H]1C(=O)N1CC2(CN(C(=O)c3cnn(Cc4ccccc4)c3)C[C@@H]2C(=O)Nc2ccc(Cc3ccccc3)nc2)C1 [I-168] |
| ≤ 10 | C[C@@H](OCC1CCCCC1)[C@H](NC(=O)C1CN(C(=O)c2cncs2)CC12CN(C(=O)[C@H]1CC1(C)C)C2)C(=O)N1CCC[C@@H](CO)C1 (stereo partly drawn) [I-197] |
| > 10000 | CNC(=O)[C@@H](NC(=O)[C@H]1CN(C(=O)c2cnn(Cc3ccccc3)c2)CC12CN(C(=O)c1ccccc1)C2)[C@@H](C)OCc1ccccc1 [I-26B] |
| > 10000 | CNC(=O)[C@@H](NC(=O)[C@H]1CN(C(=O)c2cnn(CC3CCNCC3)c2)CC12CN(C(=O)[C@H]1CC1(C)C)C2)[C@@H](C)OCc1ccccc1 [I-19B] |
| > 10000 | CNC(=O)[C@@H](NC(=O)[C@@H]1CN(C(=O)c2scnc2C2CCCC2)CC12CN(C(=O)[C@H]1CC1(C)C)C2)[C@@H](C)OCC1CCCCC1 [I-224B] |
| > 10000 | CNC(=O)[C@@H](NC(=O)[C@H]1CN(C(=O)c2scnc2C2CC2)CC12CN(C(=O)[C@H]1CC1(C)C)C2)[C@@H](C)OCC1CCCCC1 [I-185B] |
| > 10000 | COc1cccc(CNC(=O)[C@@H]2CN(C(=O)c3cnn(Cc4ccccc4)c3)CC23CN(C(=O)[C@H]2CC2(C)C)C3)n1 [I-126A] |
| > 10000 | CNC(=O)[C@@H](NC(=O)[C@@H]1CN(C(=O)c2cncs2)CC12CN(Cc1ccco1)C2)[C@@H](C)OCC12CCC(CC1)OC2 [I-349] |
| 1000 to 10000 | CNC(=O)[C@@H](NC(=O)[C@@H]1CN(C(=O)c2cnn(Cc3ccccc3)c2)CC12CN(C(=O)c1ccccc1)C2)[C@@H](C)OCc1ccccc1 [I-26A] |
| > 10000 | Cc1nc(C)c(C(=O)N2C[C@@H](C(=O)NC(c3cccc(C4CCOCC4)n3)C(C)(C)O)C3(C2)CN(C(=O)[C@H]2CC2(C)C)C3)s1 (stereo partly drawn) [I-437] |
| 100 to 1000 | CNC(=O)[C@@H](NC(=O)[C@@H]1CN(C(=O)c2cnn(Cc3ccccc3)c2)CC12CN(C(=O)[C@H]1CC1(C)C)C2)[C@@H](C)OCc1cccnc1 [I-247] |
| 100 to 1000 | CNC(=O)[C@@H](NC(=O)[C@@H]1CN(C(=O)c2cnn(Cc3ccccc3)c2)CC12CN(C(=O)C(C)(C)F)C2)[C@@H](C)OCc1ccccc1 [I-90A] |
| ≤ 10 | COC[C@H]1CCCN(C(=O)[C@@H](NC(=O)[C@@H]2CN(C(=O)c3cncs3)CC23CN(C(=O)[C@H]2CC2(C)C)C3)[C@@H](C)O[C@@H](C)C2CCCCC2)C1 [I-369] |
| ≤ 10 | C[C@@H](OCC1CCC(F)(F)CC1)[C@H](NC(=O)[C@@H]1CN(C(=O)c2cncs2)CC12CN(C(=O)C(C)(C)C1CC1)C2)C(=O)N1CCC(O)CC1 [I-337] |
| 100 to 1000 | C[C@@H](OCC1CCOCC1)[C@@H](COC(F)(F)F)NC(=O)[C@@H]1CN(C(=O)c2cncs2)CC12CN(C(=O)[C@H]1CC1(C)C)C2 [I-428] |
| 10 to 100 | [2H]C([2H])([2H])OC[C@H]1CCCN(C(=O)[C@@H](NC(=O)[C@@H]2CN(C(=O)c3cncs3)CC23CN(C(=O)C(C)(C)C2CC2)C3)[C@@H](C)OCC23CCC(CC2)OC3)C1 [I-459] |
| > 10000 | CNC(=O)[C@@H](NC(=O)[C@H]1CN(C(=O)c2cnc(C(F)(F)F)s2)CC12CN(C(=O)[C@H]1CC1(C)C)C2)[C@@H](C)OCC1CCCCC1 [I-161B] |
| 10 to 100 | CNC(=O)C(NC(=O)[C@@H]1CN(C(=O)c2cncs2)CC12CN(C(=O)C(C)(C)C1CC1)C2)c1cccc(C2CCCCC2)n1 (stereo partly drawn) [I-410, (8S)—N-(1-(6-cyclohexylpyridin-2-yl)-2-(methylamino)-2-oxoethyl)-2-(2-cyclopropyl-2-methylpropanoyl)-6-(thiazole-5-carbonyl)-2,6-diazaspiro[3.4]octane-8-carboxamide] |
| ≤ 10 | C[C@@H](OCC1CCCCC1)[C@H](NC(=O)[C@@H]1CN(C(=O)c2cnn(Cc3ccccc3)c2)CC12CN(C(=O)[C@H]1CC1(C)C)C2)C(=O)O [I-477] |
| 1000 to 10000 | CC1(C)C[C@@H]1C(=O)N1CC2(CN(C(=O)c3cnn(Cc4ccccc4)c3)C[C@H]2C(=O)N2CCC(OCc3ccccc3)CC2)C1 [I-214] |
| > 10000 | CC(=O)N1C[C@@H](C(=O)N[C@H](C(=O)N2CCCCC2)[C@@H](C)OCC2CCCCC2)C2(C1)CN(C(=O)[C@H]1CC1(C)C)C2 [I-118] |
